Source: PubChem BioAssay AID2305 (GlaxoSmithKline (GSK), 2010)
“And” between values parts separate entries of the source, which are not always exact repeats. Equal values may be shown once.

What follows are compounds tested on P. falciparum 3D7 growth, pLDH absorbance (assay: P. falciparum 3D7 growth inhibition, dose response, strain 3D7 (AID 2305)).

In order of rising IC50:
1. CC1(C)N=C(N)NC(Nc2ccc(F)c(F)c2)=N1  50 nM
2. CCCCCCCCn1c2c(c(=N)c3c1CCC3)CCCC2  110 nM
3. Cn1nccc1C(=O)NCCNCc1ccc(-c2cccc(-c3nc4ccc(C(F)(F)F)cc4[nH]3)c2)cc1  120 nM
4. O=C(/C=C/c1ccc(Cl)c(Cl)c1)N1CCC(CCN2CCC(c3c[nH]c4cnccc34)CC2)CC1  120 nM
5. CCOc1ccc(-c2nonc2NC(=O)c2cccc(Cl)c2)cc1OCC  150 nM
6. CCN1CCN(c2cc(C)c3cc(NC(=O)c4cc(OC)cc(OC)c4)ccc3n2)CC1  160 nM
7. Cc1nc2ccc3ccc(CNc4ccc5c(c4)CN([C@@H](CCC(=O)O)C(=O)O)C5=O)cc3c2c(=O)[nH]1  160 nM
8. Cn1nccc1C(=O)NCCNCc1cccc(-c2cccc(-c3nc4ccc(C(F)(F)F)cc4[nH]3)c2)c1  170 nM
9. COc1cc2nc(N3CCC(CNC(=O)c4ccc(-c5ccc(-c6noc(C)n6)cc5C)cc4)CC3)nc(N)c2cc1OC  220 nM
10. Cc1noc(C)c1-c1cccc(CNCc2cccc(-c3ccc(-c4nc5ccccc5[nH]4)cc3)c2)c1  230 nM
11. O=C(Cc1cnc[nH]1)Nc1cccc(-c2cccc(-c3nc4ccc(C(F)(F)F)cc4[nH]3)c2)c1  230 nM
12. COc1ccc(-c2nc(NC(=O)CS(=O)(=O)c3ccc(F)cc3)sc2C)cc1  240 nM
13. Cc1cccc2[nH]c(-c3cccc(-c4ccc(NC(=O)CC5NC(=O)c6ccccc65)cc4)c3)nc12 (centres undefined)  290 nM
14. Cc1cc(Cl)c(S(=O)(=O)N2CCc3ccccc32)cc1OCC(=O)NC1CCCCC1  300 nM
15. CC(C)NCc1cccc(-c2ccc(NC(=O)c3cccc(C#N)c3)cc2)c1  320 nM
16. O=C(Nc1ccccc1)N(Cc1cccc(-c2ccc(CNCc3ccc4c(c3)OCO4)cc2)c1)C1CCN(Cc2ccccc2)CC1  330 nM
17. O=C(Nc1ccc2nccc(N3CCN4CCC[C@H]4C3)c2c1)c1ccc(Cl)c(Cl)c1  340 nM
18. O=C(NC1CCN(CC2(c3ccc(Cl)cc3)CCC2)CC1)c1cscn1  530 nM
19. Cc1ccc(NC(=O)NC2CCN(CCCCCNC(=O)[C@@H]3C[C@H]3c3ccc(Cl)c(Cl)c3)CC2)cc1  540 nM
20. Cc1cc(=O)c(-c2ccc(Oc3cccc(Cl)c3)cc2)c(C)[nH]1  600 nM
21. CCCc1ccccc1Nc1nc(C)cc(N(CC)CCCN2CCCCC2)n1  620 nM
22. FC(F)(F)c1ccc2nc(-c3ccc(-c4ccc(CN5CCN(c6cnccn6)CC5)cc4)s3)[nH]c2c1  650 nM
23. CC(C)(Oc1c(C2CCN(CCCCNC(=O)c3ccc(-c4ccc(C#N)cc4)cc3)CC2)ccc2c1CCCC2)C(N)=O  700 nM
24. Cc1ccc(Nc2nc3cc(Nc4ccnc(Nc5ccc(CS(C)(=O)=O)cc5)n4)ccc3o2)cc1  760 nM
25. CS(=O)(=O)c1ccc(-c2cncc(Cl)n2)cc1  770 nM
26. Cc1ccc(NC(=O)N2CCCN(CCCCCNC(=O)/C=C/c3ccc(Cl)c(Cl)c3)CC2)cc1C  770 nM
27. COc1ccc(NC(=O)[C@H](Cc2ccccc2)Nc2cc(C)nc(NCc3ccccc3C)n2)cc1  790 nM
28. CSC1=NC(=Nc2ccccc2C)C2(CCC(C(C)(C)C)CC2)N1c1ccccc1Cl (centres undefined)  800 nM
29. CS(=O)(=O)c1ccccc1CNC(=O)c1cccc(-c2ccc(-c3nc4ccc(C(F)(F)F)cc4[nH]3)cc2)c1  810 nM
30. O=C(Cc1cnc[nH]1)Nc1cccc(-c2ccc(-c3nc4ccc(F)cc4[nH]3)cc2)c1  810 nM
31. Cc1cc(NN=Cc2ccc(Cl)cc2)c2cc(F)ccc2n1  830 nM
32. COc1ccc(CCNCCCCCCNCCc2ccc(Cl)cc2)c(Cl)c1OC  830 nM
33. Fc1cc(Cl)ccc1Nc1ccnc2cc(-c3scnc3CNCCN3CCOCC3)ccc12  850 nM
34. CC(C)C(=O)NC(c1ccc(Cl)cc1)c1ccc2cccnc2c1O (centres undefined)  870 nM
35. O=C(/C=C/c1ccc(C(F)(F)F)cc1)NCCCCCN1CCN(C(=O)Nc2ccc(Cl)c(Cl)c2)CC1  870 nM
36. Fc1ccc2ncc(Cl)c(CCN3CCC(NCc4cc5c(cn4)OCCO5)CC3)c2c1  880 nM
37. Oc1ccccc1CN[C@@H]1CCCC[C@H]1NCc1ccccc1O  950 nM
38. COc1ccccc1N1CCN(CCCCNC(=O)c2ccc(NC(=O)c3cc4ccccc4o3)cc2)CC1  980 nM
39. CC1CC(NCCCNc2cc(=O)c3ccccc3[nH]2)c2c(Cl)c(Cl)cc(Cl)c21 (centres undefined)  980 nM
40. Clc1ncccc1-c1nc(NCCC(c2ccccc2)c2ccccc2)no1  1000 nM
41. CCn1ncc(Cl)c1CN(C)S(=O)(=O)c1ccc(Br)cc1  1020 nM
42. Cc1cc(N[C@@H](CC(C)C)C(=O)NCc2cccs2)nc(NCCc2cccs2)n1  1020 nM
43. Nc1c(Cl)cc(C(O)CNCCCCCOCCc2ccc3ccccc3n2)cc1Cl (centres undefined)  1020 nM
44. CS(=O)(=O)c1ccc(OCCCN(Cc2ccccc2C(F)(F)F)c2ccc(C#N)c(C(F)(F)F)c2)cc1  1020 nM
45. O=C(O[C@H]1CN[C@H](C#Cc2cc3ncnc(Nc4ccc5c(ccn5S(=O)(=O)c5cccs5)c4)c3s2)C1)N1CCOCC1  1100 nM
46. CCCC(C)NC(=O)[C@H](CC1CCCCC1)NC(=O)c1ccc(O)c(-c2ccc(OC)cc2)c1 (some centres undefined)  1130 nM
47. OC(CN1CCN(c2cccc(Cl)c2)CC1)C(c1ccccc1)c1ccccc1 (centres undefined)  1150 nM
48. COc1cc(Nc2ccc3cc(S(=O)(=O)N4CCCCC4C)ccc3n2)cc(OC)c1OC (centres undefined)  1240 nM

With `Cc1ccc(C)c(C=CC(=O)NC2CCC(CN3CCC(c4c[nH]c5ccccc45)CC3)CC2)c1` (centres undefined) the IC50 was 760 nM and 700 nM.
